Laboratory results: BigSolDB 2.1

For `O=C(O)c1cccc(O)c1`, the solubility (mole fraction) (in acetone, 278.15 K) was 0.101, the solubility (mole fraction) (in acetone, 283.15 K) was 0.107 and the solubility (mole fraction) (in acetone, 288.15 K) was 0.111. It also gave a solubility (mole fraction) (in acetone, 293.15 K) of 0.116, a solubility (mole fraction) (in acetone, 298.15 K) of 0.122 and a solubility (mole fraction) (in acetone, 303.15 K) of 0.128. It also gave a solubility (mole fraction) (in acetone, 308.15 K) of 0.134, a solubility (mole fraction) (in acetone, 313.15 K) of 0.142 and a solubility (mole fraction) (in acetone, 318.15 K) of 0.151. The solubility (mole fraction) (in acetone, 323.15 K) was 0.159, the solubility (mole fraction) (in acetonitrile, 278.15 K) was 0.00646 and the solubility (mole fraction) (in acetonitrile, 283.15 K) was 0.00759. The solubility (mole fraction) (in acetonitrile, 288.15 K) was 0.0103, the solubility (mole fraction) (in acetonitrile, 293.15 K) was 0.0116 and the solubility (mole fraction) (in acetonitrile, 298.15 K) was 0.0132. The solubility (mole fraction) (in acetonitrile, 303.15 K) was 0.0155, the solubility (mole fraction) (in acetonitrile, 308.15 K) was 0.017 and the solubility (mole fraction) (in acetonitrile, 313.15 K) was 0.0199. For the same compound, the solubility (mole fraction) (in acetonitrile, 318.15 K) was 0.0228, the solubility (mole fraction) (in acetonitrile, 323.15 K) was 0.0262 and the solubility (mole fraction) (in ethanol, 278.15 K) was 0.0936. The solubility (mole fraction) (in ethanol, 283.15 K) was 0.0968, the solubility (mole fraction) (in ethanol, 288.15 K) was 0.101 and the solubility (mole fraction) (in ethanol, 293.15 K) was 0.106. For the same compound, the solubility (mole fraction) (in ethanol, 298.15 K) was 0.112, the solubility (mole fraction) (in ethanol, 303.15 K) was 0.116 and the solubility (mole fraction) (in ethanol, 308.15 K) was 0.121. The solubility (mole fraction) (in ethanol, 313.15 K) was 0.127, the solubility (mole fraction) (in ethanol, 318.15 K) was 0.134 and the solubility (mole fraction) (in ethanol, 323.15 K) was 0.147. It also gave a solubility (mole fraction) (in ethyl acetate, 278.15 K) of 0.0377, a solubility (mole fraction) (in ethyl acetate, 283.15 K) of 0.041 and a solubility (mole fraction) (in ethyl acetate, 288.15 K) of 0.0441. It also gave a solubility (mole fraction) (in ethyl acetate, 293.15 K) of 0.0486, a solubility (mole fraction) (in ethyl acetate, 298.15 K) of 0.0534 and a solubility (mole fraction) (in ethyl acetate, 303.15 K) of 0.0565. It also gave a solubility (mole fraction) (in ethyl acetate, 308.15 K) of 0.0607, a solubility (mole fraction) (in ethyl acetate, 313.15 K) of 0.0682 and a solubility (mole fraction) (in ethyl acetate, 318.15 K) of 0.0742. For the same compound, the solubility (mole fraction) (in ethyl acetate, 323.15 K) was 0.0764, the solubility (mole fraction) (in ethylene glycol, 278.15 K) was 0.0804 and the solubility (mole fraction) (in ethylene glycol, 283.15 K) was 0.0829. For the same compound, the solubility (mole fraction) (in ethylene glycol, 288.15 K) was 0.0847, the solubility (mole fraction) (in ethylene glycol, 293.15 K) was 0.0883 and the solubility (mole fraction) (in ethylene glycol, 298.15 K) was 0.0959. For the same compound, the solubility (mole fraction) (in ethylene glycol, 303.15 K) was 0.102, the solubility (mole fraction) (in ethylene glycol, 308.15 K) was 0.109 and the solubility (mole fraction) (in ethylene glycol, 313.15 K) was 0.116. For the same compound, the solubility (mole fraction) (in ethylene glycol, 318.15 K) was 0.124, the solubility (mole fraction) (in ethylene glycol, 323.15 K) was 0.136 and the solubility (mole fraction) (in isopropanol, 278.15 K) was 0.0984. The solubility (mole fraction) (in isopropanol, 283.15 K) was 0.104, the solubility (mole fraction) (in isopropanol, 288.15 K) was 0.109 and the solubility (mole fraction) (in isopropanol, 293.15 K) was 0.114. For the same compound, the solubility (mole fraction) (in isopropanol, 298.15 K) was 0.121, the solubility (mole fraction) (in isopropanol, 303.15 K) was 0.127 and the solubility (mole fraction) (in isopropanol, 308.15 K) was 0.134. The solubility (mole fraction) (in isopropanol, 313.15 K) was 0.14, the solubility (mole fraction) (in isopropanol, 318.15 K) was 0.148 and the solubility (mole fraction) (in isopropanol, 323.15 K) was 0.155. It also gave a solubility (mole fraction) (in isopropyl acetate, 278.15 K) of 0.0305, a solubility (mole fraction) (in isopropyl acetate, 283.15 K) of 0.0337 and a solubility (mole fraction) (in isopropyl acetate, 288.15 K) of 0.0365. For the same compound, the solubility (mole fraction) (in isopropyl acetate, 293.15 K) was 0.0383, the solubility (mole fraction) (in isopropyl acetate, 298.15 K) was 0.043 and the solubility (mole fraction) (in isopropyl acetate, 303.15 K) was 0.0465. For the same compound, the solubility (mole fraction) (in isopropyl acetate, 308.15 K) was 0.0507, the solubility (mole fraction) (in isopropyl acetate, 313.15 K) was 0.0552 and the solubility (mole fraction) (in isopropyl acetate, 318.15 K) was 0.059. For the same compound, the solubility (mole fraction) (in isopropyl acetate, 323.15 K) was 0.0618, the solubility (mole fraction) (in methanol, 278.15 K) was 0.0815 and the solubility (mole fraction) (in methanol, 283.15 K) was 0.0856. For the same compound, the solubility (mole fraction) (in methanol, 288.15 K) was 0.0895, the solubility (mole fraction) (in methanol, 293.15 K) was 0.0943 and the solubility (mole fraction) (in methanol, 298.15 K) was 0.0995. The solubility (mole fraction) (in methanol, 303.15 K) was 0.105, the solubility (mole fraction) (in methanol, 308.15 K) was 0.11 and the solubility (mole fraction) (in methanol, 313.15 K) was 0.117. The solubility (mole fraction) (in methanol, 318.15 K) was 0.124, the solubility (mole fraction) (in methanol, 323.15 K) was 0.13 and the solubility (mole fraction) (in methyl acetate, 278.15 K) was 0.0388. The solubility (mole fraction) (in methyl acetate, 283.15 K) was 0.0435, the solubility (mole fraction) (in methyl acetate, 288.15 K) was 0.048 and the solubility (mole fraction) (in methyl acetate, 293.15 K) was 0.0502. The solubility (mole fraction) (in methyl acetate, 298.15 K) was 0.0549, the solubility (mole fraction) (in methyl acetate, 303.15 K) was 0.0577 and the solubility (mole fraction) (in methyl acetate, 308.15 K) was 0.0631. The solubility (mole fraction) (in methyl acetate, 313.15 K) was 0.0691, the solubility (mole fraction) (in methyl acetate, 318.15 K) was 0.0764 and the solubility (mole fraction) (in methyl acetate, 323.15 K) was 0.0808. The solubility (mole fraction) (in n-butanol, 278.15 K) was 0.0772, the solubility (mole fraction) (in n-butanol, 283.15 K) was 0.0831 and the solubility (mole fraction) (in n-butanol, 288.15 K) was 0.0857. The solubility (mole fraction) (in n-butanol, 293.15 K) was 0.0919, the solubility (mole fraction) (in n-butanol, 298.15 K) was 0.0957 and the solubility (mole fraction) (in n-butanol, 303.15 K) was 0.102. It also gave a solubility (mole fraction) (in n-butanol, 308.15 K) of 0.109, a solubility (mole fraction) (in n-butanol, 313.15 K) of 0.115 and a solubility (mole fraction) (in n-butanol, 318.15 K) of 0.12. For the same compound, the solubility (mole fraction) (in n-butanol, 323.15 K) was 0.125, the solubility (mole fraction) (in n-butyl acetate, 278.15 K) was 0.0361 and the solubility (mole fraction) (in n-butyl acetate, 283.15 K) was 0.0397. For the same compound, the solubility (mole fraction) (in n-butyl acetate, 288.15 K) was 0.043, the solubility (mole fraction) (in n-butyl acetate, 293.15 K) was 0.0459 and the solubility (mole fraction) (in n-butyl acetate, 298.15 K) was 0.0486. For the same compound, the solubility (mole fraction) (in n-butyl acetate, 303.15 K) was 0.0526, the solubility (mole fraction) (in n-butyl acetate, 308.15 K) was 0.0564 and the solubility (mole fraction) (in n-butyl acetate, 313.15 K) was 0.0611. It also gave a solubility (mole fraction) (in n-butyl acetate, 318.15 K) of 0.0661, a solubility (mole fraction) (in n-butyl acetate, 323.15 K) of 0.0693 and a solubility (mole fraction) (in n-pentanol, 278.15 K) of 0.0774. The solubility (mole fraction) (in n-pentanol, 283.15 K) was 0.0815, the solubility (mole fraction) (in n-pentanol, 288.15 K) was 0.0852 and the solubility (mole fraction) (in n-pentanol, 293.15 K) was 0.0902. The solubility (mole fraction) (in n-pentanol, 298.15 K) was 0.0951, the solubility (mole fraction) (in n-pentanol, 303.15 K) was 0.101 and the solubility (mole fraction) (in n-pentanol, 308.15 K) was 0.106. It also gave a solubility (mole fraction) (in n-pentanol, 313.15 K) of 0.113, a solubility (mole fraction) (in n-pentanol, 318.15 K) of 0.118 and a solubility (mole fraction) (in n-pentanol, 323.15 K) of 0.125. The solubility (mole fraction) (in n-propanol, 278.15 K) was 0.0827, the solubility (mole fraction) (in n-propanol, 283.15 K) was 0.0878 and the solubility (mole fraction) (in n-propanol, 288.15 K) was 0.0949. For the same compound, the solubility (mole fraction) (in n-propanol, 293.15 K) was 0.0975, the solubility (mole fraction) (in n-propanol, 298.15 K) was 0.101 and the solubility (mole fraction) (in n-propanol, 303.15 K) was 0.108. For the same compound, the solubility (mole fraction) (in n-propanol, 308.15 K) was 0.114, the solubility (mole fraction) (in n-propanol, 313.15 K) was 0.121 and the solubility (mole fraction) (in n-propanol, 318.15 K) was 0.128. It also gave a solubility (mole fraction) (in n-propanol, 323.15 K) of 0.133, a solubility (mole fraction) (in n-propyl acetate, 278.15 K) of 0.0379 and a solubility (mole fraction) (in n-propyl acetate, 283.15 K) of 0.0434. The solubility (mole fraction) (in n-propyl acetate, 288.15 K) was 0.0449, the solubility (mole fraction) (in n-propyl acetate, 293.15 K) was 0.047 and the solubility (mole fraction) (in n-propyl acetate, 298.15 K) was 0.0513. It also gave a solubility (mole fraction) (in n-propyl acetate, 303.15 K) of 0.0569, a solubility (mole fraction) (in n-propyl acetate, 308.15 K) of 0.061 and a solubility (mole fraction) (in n-propyl acetate, 313.15 K) of 0.0651. It also gave a solubility (mole fraction) (in n-propyl acetate, 318.15 K) of 0.0711 and a solubility (mole fraction) (in n-propyl acetate, 323.15 K) of 0.0769.
